Counter-ions that a name gives are not always drawn. Like-named read-outs stand apart in the source and are kept apart here.

From patent EP0795549A1, “Bis-aryloxy(amino)-triazinyl-oxy(amino)aryl derivatives, their preparation and their use as antiviral agents” (American Cyanamid Company, priority 1996, dated 1997) come the findings set out here.

One data set relates to RSV (A2). Put plainly: viral yield reduction (growth inhibition) assay, RSV. The class given is cell-based, Respiratory Syncitial Virus. The settings on record: for Antiviral IC50 µg/ml RSV/ Vero: format not given; for IC50: human respiratory syncytial virus. The procedure: (§1) The compounds were tested for biological activity using viral yield reduction assays. Host cells (indicated as HF for human foreskin fibroblasts and as vero, the commonly used African green monkey cell line, in Tables 1 and 1a) were plated at 4 x 10^4 cells/well in cell growth medium with 2% fetal bovine serum or 2% calf serum in 96-well plates (0.1 ml/well) and incubated overnight. The compounds were added to individual wells to give final concentrations ranging from 50 to 0.1 µg/ml in two-fold concentration steps. After 1 hour, virus was added, and the incubation was continued for 4 days with RSV or CMV and for 2 days with HSV. At the end of the experiment, the amount of virus growth was quantitated and the yield reduction at various concentrations of compound was calculated. This allows estimation of the concentration of compound giving 50% reduction in virus growth (IC50).

For data set [1], the system named is human foreskin fibroblasts (HF). In words: effect on cells: appearance of fixed, crystal violet-stained monolayer (HF). Set-up: key: N, no effect on the appearance of the alcohol-fixed and crystal violet-stained cell monolayer at the indicated compound concentration.; L, lightening of the intensity of staining (compared to controls) of the alcohol-fixed and crystal violet-stained cell monolayer at the indicated compound concentration but not at half that concentration. It counts as cell-based.

For data set [2], the system named is CMV (Ad169). In words: viral yield reduction (growth inhibition) assay, CMV. The class given is cell-based, Cytomegalovirus. The following applies: for Antiviral IC50 µg/ml CMV /HF: Table 1a. As for the experimental part: as §1
The subject of data set [3] is HSV1 (Patton). Put plainly: viral yield reduction (growth inhibition) assay, HSV. It counts as cell-based, Herpes Simplex Virus. The settings on record: for Antiviral IC50 µg/ml HSV Vero: Table 1a, HSV1 (Patton), format not given. As for the experimental part:
as §1

Another data set concerns vero cells. In words: effect on cells: appearance of fixed, crystal violet-stained monolayer (vero). The class given is cell-based, African green monkey. On the set-up: key: N, no effect on the appearance of the alcohol-fixed and crystal violet-stained cell monolayer at the indicated compound concentration.; L, lightening of the intensity of staining (compared to controls) of the alcohol-fixed and crystal violet-stained cell monolayer at the indicated compound concentration but not at half that concentration. The following applies: at 75 µg/ml.

Data set [4] relates to HSV1 (Patton). Put plainly: viral plaque reduction assay, HSV1. It counts as cell-based, Herpes Simplex Virus. The following applies: HSV1 (Patton), vero host cells.
The subject of data set [5] is CMV (Ad169). In words: viral plaque reduction assay, CMV. It counts as cell-based, Cytomegalovirus. The following applies: Human betaherpesvirus 5; CMV (Ad169), HF host cells; read-out: IC50µG/mL IN PLAQUE ASSAY CMV/ HF.
The mark [6] stands for this setting: Table 1a, HF, yield reduction or plaque format not specified.
Where [7] appears, read: HF host cells, read-out: IC50 µG/mL IN GROWTH […]/ HF.
Where [8] appears, read: vero host cells, read-out: IC50 µG/mL IN GROWTH […]/ VERO.
The mark [9] stands for this setting: Human betaherpesvirus 5, HF host cells, read-out: IC50 µG/mL IN GROWTH […]/ HF.

Regarding “1,2',1'',1'''-[(2,2'-disulfo[1,1'-biphenyl]-4,4'-diyl)-bis[imino-1,3,5-triazine-6,2,4-triylbis(imino-3,1-phenylenesulfonyl)]tetrakis[3,5-piperidinedicarboxylic acid [Example 54]”, in the data set with RSV (A2) (setting [6]), the “Antiviral IC50 µg/ml RSV/ HF” value was 35 µg/mL. In the data set on RSV (A2) (Table 1a), the “Antiviral IC50 µg/ml RSV/ Vero” value was greater than 50 µg/mL. The “Effect on cells @ µg/ml indicated HF” value in data set [1] (at 75 µg/ml) is listed as “N@75”. For the same compound, the “Antiviral IC50 µg/ml CMV /HF” value in the data set with CMV (Ad169) [2] (HF, format not given) was greater than 50 µg/mL.

Turning to “4',4-Bis-{4,6-bis-[3-(3,5-dicarbamoyl-piperidine-1-sulfonyl)-phenylamino]-[1,3,5]triazin-2-ylamino}-biphenyl-2,2'disulfonic acid, disodium salt [Example 53]”, the “Antiviral IC50 µg/ml RSV/ HF” value in the data set on RSV (A2) (setting [6]) came out at 2 µg/mL. Further, the “Antiviral IC50 µg/ml RSV/ Vero” value in the data set with RSV (A2) (Table 1a) stood at 7 µg/mL. Also, in data set [1] (at 75 µg/ml), the “Effect on cells @ µg/ml indicated HF” value is “N@75”. Besides, the “Antiviral IC50 µg/ml HSV Vero” value in the data set on HSV1 (Patton) [3] is greater than 50 µg/mL. Further, the “Effect on cells @ µg/ml indicated Vero” value in the data set on vero cells is “N@75”.

Take “4',4-Bis-{4,6-bis-[3-(bis-carbamoylmethyl-1-sulfamoyl)-phenylamino]-[1,3,5]triazin-2-ylamino}-biphenyl-2,2'-disulfonic acid, disodium salt [Example 43]”: the “Antiviral IC50 µg/ml RSV/ HF” value in the data set on RSV (A2) (setting [6]) was determined as 0.1 µg/mL. Further, the “Effect on cells @ µg/ml indicated HF” value in data set [1] (at 75 µg/ml) is reported as “N@75”. The “Antiviral IC50 µg/ml HSV Vero” value in the data set on HSV1 (Patton) [3] was found to be 6 µg/mL. Besides, in the data set with vero cells, the “Effect on cells @ µg/ml indicated Vero” value is “N@75”. Also, the “Antiviral IC50 µg/ml CMV /HF” value in the data set with CMV (Ad169) [2] (HF, format not given) came to 2.5 µg/mL.

With “4,4'-Bis-(4,6-bis-{3-[bis-(2-methylcarbamoyl-ethyl)-sulfamoyl]-phenylamino}-[1,3,5]triazin-2-ylamino)-biphenyl-2,2'-dicarboxylic acid, disodium salt [Example 35]”, the “Antiviral IC50 µg/ml RSV/ HF” value with RSV (A2) (setting [6]) turned out to be 6 µg/mL. For the same compound, the “Antiviral IC50 µg/ml HSV Vero” value in the data set with HSV1 (Patton) [3] is greater than 50 µg/mL. In addition, the “Effect on cells @ µg/ml indicated Vero” value with vero cells is listed as “N@75”. For the same compound, the “Antiviral IC50 µg/ml CMV /HF” value in the data set with CMV (Ad169) [2] (HF, format not given) is greater than 50 µg/mL.

Consider “4,4'-Bis-(4,6-bis{3-[bis-(2-carbamoyl-ethyl)-sulfamoyl]-phenylamino}- 1,3,5-triazin-2-ylamino]-biphenyl-2,2'-dicarboxylic acid, disodium salt [Example 30]”, for which the “Antiviral IC50 µg/ml RSV/ HF” value in the data set on RSV (A2) (setting [6]) came to 0.35 µg/mL. For the same compound, in data set [1] (at 75 µg/ml), the “Effect on cells @ µg/ml indicated HF” value is “N@75”. Moreover, in the data set with HSV1 (Patton) [3], the “Antiviral IC50 µg/ml HSV Vero” value was greater than 50 µg/mL. Further, in the data set with CMV (Ad169) [2] (HF, format not given), the “Antiviral IC50 µg/ml CMV /HF” value stood at 40 µg/mL.

Regarding “4,4'-Bis-[[4,6-bis-[[3-[[bis-[3-(methylamino)-3-oxopropyl]amino]sulfonyl]phenyl]amino]-1,3,5-triazin-2-yl]amino] [1,1'-biphenyl]-2,2'-disulfonic acid, disodium salt [Example 34]”, the “Antiviral IC50 µg/ml RSV/ HF” value with RSV (A2) (setting [6]) was determined as 1.2 µg/mL. The “Effect on cells @ µg/ml indicated HF” value in data set [1] (at 75 µg/ml) is “N@75”. The “Antiviral IC50 µg/ml HSV Vero” value in the data set with HSV1 (Patton) [3] was greater than 50 µg/mL. In addition, the “Effect on cells @ µg/ml indicated Vero” value in the data set with vero cells was “L@75”. Moreover, the “Antiviral IC50 µg/ml CMV /HF” value with CMV (Ad169) [2] (HF, format not given) is greater than 50 µg/mL.

“4,4'Bis-(4,6-bis-{3-[bis-(2-hydroxy-propyl)-sulfamoyl]-phenylamino}-[1,3,5]triazin-2-ylamino)biphenyl-2,2'-disulfonic acid, disodium salt [Example 40]”: in the data set on RSV (A2) (setting [6]), the “Antiviral IC50 µg/ml RSV/ HF” value stood at 0.2 µg/mL. Further, in data set [1] (at 75 µg/ml), the “Effect on cells @ µg/ml indicated HF” value was “N@75”. Further, the “Antiviral IC50 µg/ml HSV Vero” value with HSV1 (Patton) [3] was found to be 20 µg/mL. Further, in the data set with vero cells, the “Effect on cells @ µg/ml indicated Vero” value is “N@75”. In addition, the “Antiviral IC50 µg/ml CMV /HF” value in the data set with CMV (Ad169) [2] (HF, format not given) was found to be 4 µg/mL.

“4,4'Bis[4,6-di[3-aminophenyl-N,N-bis(2-hydroxyethyl)sulfonylimino]-1,3,5-triazin-2-ylamino]-stilbene-2,2'-disulfonic acid, disodium salt [Example 5]”: the “IC50µG/mL IN PLAQUE ASSAY HSV/ VER O” value in the data set with HSV1 (Patton) [4] came out at 8 µg/mL. Moreover, the “IC50 µG/mL IN GROWTH […]/ VERO” value with RSV (A2) (vero host cells) amounted to 0.4 µg/mL.

As for `NS(=O)(=O)c1cccc(Nc2nc(Nc3cccc(S(N)(=O)=O)c3)nc(Nc3ccc(/C=C/c4ccc(Nc5nc(Nc6cccc(S(N)(=O)=O)c6)nc(Nc6cccc(S(N)(=O)=O)c6)n5)cc4S(=O)(=O)O)c(S(=O)(=O)O)c3)n2)c1` [Example 15, 4,4'-Bis[4,6-di[3-aminophenylsulphonylamido]-1,3,5-triazin-2-ylamino]-stilbene-2,2'-disulfonic acid, disodium salt], the IC50 was 7 µg/mL in the data set with RSV (A2) (setting [7]), greater than 8.3 µg/mL in the data set with RSV (A2) (setting [8]), 2 µg/mL in the data set on CMV (Ad169) [2] (setting [9]) and 1 µg/mL with CMV (Ad169) [5].

For `NS(=O)(=O)c1cccc(Nc2nc(Nc3cccc(S(N)(=O)=O)c3)nc(Nc3ccc(-c4ccc(Nc5nc(Nc6cccc(S(N)(=O)=O)c6)nc(Nc6cccc(S(N)(=O)=O)c6)n5)cc4S(=O)(=O)O)c(S(=O)(=O)O)c3)n2)c1` [Example 16, 4,4'-Bis[4,6-di[3-aminophenylsylphonylimido]-1,3,5-triazin-2-ylamino]-biphenyl-2,2'-disulfonic acid, disodium salt], the IC50 in the data set on RSV (A2) (setting [7]) is 5 µg/mL; in the data set with RSV (A2) (setting [8]), roughly 8.3 µg/mL; in the data set with CMV (Ad169) [2] (setting [9]), 3 µg/mL; in the data set on CMV (Ad169) [5], 3 µg/mL.

For the compound `O=C([O-])c1cc(Nc2nc(Nc3cccc(S(=O)(=O)N(CCO)CCO)c3)nc(Nc3cccc(S(=O)(=O)N(CCO)CCO)c3)n2)ccc1-c1ccc(Nc2nc(Nc3cccc(S(=O)(=O)N(CCO)CCO)c3)nc(Nc3cccc(S(=O)(=O)N(CCO)CCO)c3)n2)cc1C(=O)[O-].[Na+].[Na+]` [Example 57, 4,4'-Bis-(4,6-bis-{3-[bis-(2-hydroxyethyl)-sulfamoyl]-phenylamino}-[1,3,5]-triazin-2-ylamino)biphenyl-2,2'dicarboxylic acid, disodium salt], the IC50 in the data set on RSV (A2) (Table 1a, HF, yield reduction or plaque format not specified, read-out: Antiviral IC50 µg/ml RSV/ HF) amounted to 1.5 µg/mL; in the data set with HSV1 (Patton) [3] (Human alphaherpesvirus 1, Vero, read-out: Antiviral IC50 µg/ml HSV Vero), 30 µg/mL; with CMV (Ad169) [2] (Human betaherpesvirus 5, Table 1a, HF, format not given, read-out: Antiviral IC50 µg/ml CMV /HF) it was 4 µg/mL. The “Effect on cells @ µg/ml indicated Vero” value in the data set with vero cells is given as “N@75”.

For “(E)-2,2'-(1,2-Ethenediyl)bis[5-[[4,6-bis[[3-[[3,5-bis(aminocarbonyl)-1-piperedinyl]sulfonyl]phenyl]amino]-1,3,5-triazin-2-yl]benzenesulfonic acid], disodium salt [Example 52]”, the “Antiviral IC50 µg/ml RSV/ HF” value with RSV (A2) (setting [6]) came out at 1.5 µg/mL. Further, in the data set with RSV (A2) (Table 1a), the “Antiviral IC50 µg/ml RSV/ Vero” value amounted to 1.5 µg/mL. The “Effect on cells @ µg/ml indicated HF” value in data set [1] (at 37 µg/ml) was “L@37”.
